Experimental data taken from PubChem BioAssay (NCI).
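These data come from cells grown in 96-well plates and exposed to compound for 48 hours at five concentrations. Here, GI50 denotes the concentration required for 50% inhibition of growth. TGI: total growth inhibition.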

Assays:
Assay in all cases: DTP human tumour cell line panel, 48 h; in the data active means GI50 below about 0.43 µM; inactive means the rest
[1] = tested on: 786-0 renal
[2] = tested on: A498 renal
[3] = tested on: A549 NSCLC
[4] = tested on: ACHN renal
[5] = tested on: BT-549 breast
[6] = tested on: CAKI-1 renal
[7] = tested on: CCRF-CEM leukemia
[8] = tested on: COLO 205 colon
[9] = tested on: DU-145 prostate
[10] = tested on: EKVX NSCLC
[11] = tested on: HCC-2998 colon
[12] = tested on: HCT-116 colon
[13] = tested on: HCT-15 colon
[14] = tested on: HOP-62 NSCLC
[15] = tested on: HOP-92 NSCLC
[16] = tested on: HS 578T breast
[17] = tested on: HT29 colon
[18] = tested on: IGROV1 ovarian
[19] = tested on: K-562 leukemia
[20] = tested on: KM12 colon
[21] = tested on: LOX IMVI melanoma
[22] = tested on: M14 melanoma
[23] = tested on: MALME-3M melanoma
[24] = tested on: MCF7 breast
[25] = tested on: MDA-MB-231 breast
[26] = tested on: MDA-MB-435
[27] = tested on: MOLT-4 leukemia
[28] = tested on: NCI-H226 lung
[29] = tested on: NCI-H23 lung
[30] = tested on: NCI-H460 lung
[31] = tested on: NCI-H522 lung
[32] = tested on: NCI/ADR-RES ovarian
[33] = tested on: OVCAR-3 ovarian
[34] = tested on: OVCAR-4 ovarian
[35] = tested on: OVCAR-5 ovarian
[36] = tested on: OVCAR-8 ovarian
[37] = tested on: PC-3 prostate
[38] = tested on: RPMI-8226 leukemia
[39] = tested on: RXF 393 renal
[40] = tested on: SF-268 CNS
[41] = tested on: SF-295 CNS
[42] = tested on: SF-539 CNS
[43] = tested on: SK-MEL-2 melanoma
[44] = tested on: SK-MEL-28 melanoma
[45] = tested on: SK-MEL-5 melanoma
[46] = tested on: SK-OV-3 ovarian
[47] = tested on: SN12C renal
[48] = tested on: SNB-19 CNS
[49] = tested on: SNB-75 CNS
[50] = tested on: SR leukemia
[51] = tested on: SW-620 colon
[52] = tested on: T-47D breast
[53] = tested on: TK-10 renal
[54] = tested on: U251 CNS
[55] = tested on: UACC-257 melanoma
[56] = tested on: UACC-62 melanoma
[57] = tested on: UO-31 renal

O=S(=O)(NC1CC2CCC1C2)c1ccc2c(c1)C(=NO)c1cc(S(=O)(=O)NC3CC4CCC3C4)ccc1-2 (stereo unspecified)
active: GI50 [1] 179 nM | GI50 [4] 74.2 nM | GI50 [6] 158 nM | GI50 [7] 25.7 nM | GI50 [9] 348 nM | GI50 [10] 52.1 nM | GI50 [14] 268 nM | GI50 [15] 152 nM | GI50 [17] 220 nM | GI50 [18] 26.2 nM | GI50 [20] 162 nM | GI50 [21] 18.2 nM | GI50 [23] 43.8 nM | GI50 [25] 106 nM | GI50 [29] 39.4 nM | GI50 [31] 160 nM | GI50 [36] 139 nM | GI50 [38] 238 nM | GI50 [39] 292 nM | GI50 [42] 182 nM | GI50 [50] 17.9 nM | GI50 [54] 371 nM | GI50 [57] 18.6 nM
56.3 nM: TGI [50]
inactive: GI50 [2] > 100 µM | GI50 [3] 1830 nM | GI50 [5] 1920 nM | GI50 [8] 23.3 µM | GI50 [11] 3.75 µM | GI50 [12] 655 nM | GI50 [13] 592 nM | GI50 [16] 31.6 µM | GI50 [19] 444 nM | GI50 [22] 4.42 µM | GI50 [24] 510 nM | GI50 [26] 1860 nM | GI50 [27] 13.3 µM | GI50 [28] 22.2 µM | GI50 [30] 437 nM | GI50 [32] 7 µM | GI50 [33] 598 nM | GI50 [34] 677 nM | GI50 [35] 453 nM | GI50 [37] 1860 nM | GI50 [40] 2380 nM | GI50 [41] 2310 nM | GI50 [43] 66.7 µM | GI50 [44] 60.2 µM | GI50 [45] > 100 µM | GI50 [46] 23.2 µM | GI50 [47] 883 nM | GI50 [48] 28.9 µM | GI50 [51] 527 nM | GI50 [52] 1270 nM | GI50 [53] 3.1 µM | GI50 [55] > 100 µM | GI50 [56] 36 µM
3.37 µM: TGI [34]
> 100 µM: TGI [2] | TGI [5] | TGI [8] | TGI [11] | TGI [12] | TGI [13] | TGI [16] | TGI [19] | TGI [22] | TGI [24] | TGI [26] | TGI [27] | TGI [28] | TGI [32] | TGI [33] | TGI [38] | TGI [43] | TGI [44] | TGI [45] | TGI [48] | TGI [49] | TGI [55] | TGI [56]
1020 nM: TGI [31]
426 nM: TGI [15]
182 nM: TGI [29]
173 nM: TGI [23]
40.5 µM: TGI [35]
22.4 µM: TGI [3]
396 nM: TGI [42]
> 86.7 µM: TGI [46]
37.6 nM: TGI [57]
30.2 µM: TGI [39]
132 nM: TGI [18]
99.5 µM: TGI [40]
4.95 µM: TGI [14]
5.57 µM: TGI [52]
18.3 µM: TGI [37]
37.1 nM: TGI [21]
72.6 nM: TGI [7]
326 nM: TGI [1]
3.67 µM: TGI [54]
3.01 µM: TGI [17]
8.91 µM: TGI [41]
3.87 µM: TGI [51]
201 nM: TGI [10]
14.2 µM: TGI [30]
2290 nM: TGI [36]
344 nM: TGI [6]
986 nM: TGI [4]
8.8 µM: TGI [9]
3.13 µM: TGI [25]
25.8 µM: TGI [47]
